Here are results for nine molecules from patent publication US12435079B2, “Bruton's tyrosine kinase inhibitors” (priority 2019, dated 2025).

The structures appear in SMILES notation.

In the assay the target is T1, BTK (Homo sapiens, UniProt Q06187).
T1 construct: purchased Promega V2941
T1 sequence (Q06187 whole entry): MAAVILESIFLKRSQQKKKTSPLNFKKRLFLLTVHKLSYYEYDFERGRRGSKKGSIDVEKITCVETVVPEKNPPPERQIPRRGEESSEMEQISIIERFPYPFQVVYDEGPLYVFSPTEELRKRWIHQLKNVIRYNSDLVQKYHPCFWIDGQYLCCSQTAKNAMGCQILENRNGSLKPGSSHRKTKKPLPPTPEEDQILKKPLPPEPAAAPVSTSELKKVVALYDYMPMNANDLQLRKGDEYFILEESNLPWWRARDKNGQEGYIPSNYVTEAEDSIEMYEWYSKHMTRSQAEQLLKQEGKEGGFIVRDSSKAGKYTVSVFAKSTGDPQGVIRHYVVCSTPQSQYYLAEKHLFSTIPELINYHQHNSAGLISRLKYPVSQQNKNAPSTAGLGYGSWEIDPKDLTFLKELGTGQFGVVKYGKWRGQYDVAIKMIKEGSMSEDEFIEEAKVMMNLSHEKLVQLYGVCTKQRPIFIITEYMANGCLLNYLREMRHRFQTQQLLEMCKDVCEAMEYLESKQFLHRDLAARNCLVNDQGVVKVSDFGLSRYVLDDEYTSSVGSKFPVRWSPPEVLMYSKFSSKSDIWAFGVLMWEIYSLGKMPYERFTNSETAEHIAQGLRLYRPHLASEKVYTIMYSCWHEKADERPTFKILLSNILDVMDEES
The assay can be described thus: BTK Kinase Assay (ADP-Glo). In kind it is biochemical. To be noted: BTK enzyme, 50 μM ATP, one hour incubation, ADP-Glo luminescence; read-out: BTK Inhibition. As to the method: The BTK assay is performed using the BTK Kinase Enzyme System (Promega; Catalog #: V2941) and ADP-Glo™ Kinase Assay kit (Promega; Catalog #: V9101). Measurement were performed in a reaction volume of 5 μL using 384-well assay plate (Corning; Catalog #: 3570). 6 ng BTK enzyme, inhibitor or 1% DMSO, 1 μg Poly(Glu4, Tyr1) peptide, and 50 μM ATP were incubated in a reaction buffer composed of 40 mM Tris-Cl (pH7.5), 20 mM MgCl2, 0.1 mg/mL BSA, 50 μM DTT and 2 mM MnCl2 for one hour. ADP was detected as described in ADP-Glo™ Kinase Assay kit using 5 μl of ADP-Glo™ Reagent and 10 μl of Kinase Detection Reagent. Luminescence was recorded using a multimode plate reader (EnVision® Multilabel Reader, Perkin Elmer). There is a linear relationship between the luminescent signal and the amount of ADP in the reaction buffer. For each compound, enzyme activity was measured at various concentrations of compound, Negative control reactions were performed in the absence of inhibitor in three replicates and six no enzyme controls were used to determine baseline luminescence levels. Dose response curve were generated to determine the concentration required for IC50 of BTK activity.
The compound numbers correspond to the compound numbers in previous Tables. Compounds having an activity designated as “A” provided an IC 50≤10 nM; Compounds having an activity designated as “B” provided an IC50 10-100 nM; Compounds having an activity designated as “C” provided an IC50 100-1000 nM; Compounds having an activity designated as “D” provided an IC50 1000-10000 nM; Compounds having an activity designated as “E” provided an IC50≥10000 nM.
As for `Nc1nccn2c(C3CCCC(O)C3)nc(-c3ccc(Oc4ccccc4)cc3)c12` (stereo not drawn) [Compound 1, 3-[8-Amino-1-(4-phenoxy-phenyl)-imidazo[1,5-a]pyrazin-3-yl]-cyclohexanol], the IC50 is at most 10 nM.
In the case of `COc1cccc(Oc2ccc(-c3nc(C4CCC(O)CC4)n4ccnc(N)c34)cc2)c1F` (stereo not drawn) [Compound 2, 4-{8-Amino-1-[4-(2-fluoro-3-methoxy-phenoxy)-phenyl]-imidazo[1,5-a]pyrazin-3-yl}-cyclohexanol] it was at most 10 nM; in that of `COc1cccc(Oc2ccc(-c3nc([C@@H]4CCC[C@@H](O)C4)n4ccnc(N)c34)cc2)c1F` [Compound 4], at most 10 nM.
Under `Nc1nccn2c1c(-c1ccc(Oc3ccccc3)cc1)nc2[C@H]1CC[C@H](O)CC1` [Compound 5, 4-[8-Amino-1-(4-phenoxy-phenyl)-imidazo[1,5-a]pyrazin-3-yl]-cyclohexanol] stands at most 10 nM; under `Nc1nccn2c(C3CCC(O)CC3)nc(-c3ccc(Oc4cccc(Cl)c4F)cc3)c12` (stereo not drawn) [Compound 6, 4-{8-Amino-1-[4-(3-chloro-2-fluoro-phenoxy)-phenyl]-imidazo[1,5-a]pyrazin-3-yl}-cyclohexanol], at most 10 nM; under `Nc1nccn2c(C3CCC(O)CC3)nc(-c3ccc(Oc4cccc(Cl)c4)cc3)c12` (stereo not drawn) [Compound 7], 10 to 100 nM.
On to `Cc1cccc(Oc2ccc(-c3nc(C4CCC(O)CC4)n4ccnc(N)c34)cc2)c1` (stereo not drawn) [Compound 8, 4-[8-Amino-1-(4-m-tolyloxy-phenyl)-imidazo[1,5-a]pyrazin-3-yl]-cyclohexanol], for which the IC50 was at most 10 nM.
For the molecule `COc1cccc(Oc2ccc(-c3nc(C4CCC(O)CC4)n4ccnc(N)c34)cc2)c1C` (stereo not drawn) [Compound 9, 4-{8-Amino-1-[4-(3-methoxy-2-methyl-phenoxy)-phenyl]-imidazo[1,5-a]pyrazin-3-yl}-cyclohexanol], the IC50 fell in the range of 10 to 100 nM.
In the case of `COc1ccccc1C(=O)NCc1ccc(-c2nc(C3CCC(O)CC3)n3ccnc(N)c23)cc1` (stereo not drawn) [Compound 11] it was at most 10 nM.
